The record followed here is PMC12714101, “CD160-Derived Peptide as a Bidirectional Inhibitor Toward Immune Checkpoints BTLA/HVEM and HVEM/LIGHT” (Journal of Medicinal Chemistry, 2025).

The inhibition is the drop in the measured response relative to a control, in per cent.

Where a SMILES comes first, the peptide text is derived from it.

This assay addresses T1, BTLA/HVEM complex (Homo sapiens, UniProt Q92956).
T1 construct: purchased ACROBiosystems HVM-H52E9 (HVEM-His); BTA-H5255 (BTLA-Fc)
T1 sequence (Q92956 39-202 limits assumed): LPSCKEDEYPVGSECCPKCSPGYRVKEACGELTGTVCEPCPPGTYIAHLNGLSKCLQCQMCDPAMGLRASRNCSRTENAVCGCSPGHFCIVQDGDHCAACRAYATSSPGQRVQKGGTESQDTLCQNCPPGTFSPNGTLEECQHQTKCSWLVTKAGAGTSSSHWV
Description: ELISA inhibition of BTLA/HVEM complex formation. The conditions noted are these: immobilized HVEM-His, BTLA-Fc 5 μg/mL, PBS-T, 37 °C, mean of three independent experiments; for inhibition at 16.67 µM: peptide 16.67 μM; for inhibition at 50 µM: peptide 50 μM; for inhibition at 150 µM: peptide 150 μM. The assay is classed as biochemical. The method, then:
In the subsequent stage of the study, the potential of the obtained compounds to inhibit the interaction between BTLA and HVEM proteins was evaluated using ELISA, following the methodology described in our previous studies. , HVEM was immobilized on the plate and incubated with peptides at three different concentrations, followed by the addition of Fc-tagged BTLA. Detection was carried out using horseradish peroxidase (HRP) conjugated with anti-human IgG and 3,3′,5,5′-tetramethylbenzidine (TMB) as a substrate. Signal intensity was directly proportional to the amount of BTLA bound to HVEM and inversely proportional to the inhibitory activity of the tested peptides. As a control, BTLA and HVEM were incubated in the absence of peptides.
Recombinant human HVEM protein with a His tag was purchased from ACROBiosystems, Newark, DE, USA (no. HVM-H52E9). Recombinant human protein BTLA-Fc and LIGHT-Fc were also purchased from ACROBiosystems, Newark, DE, USA (no. BTA-H5255 and no. LIT-H5269).
ELISA was performed using transparent 96-well NUNC Maxisorp plates (Thermo Fisher Scientific, Waltham, MA, USA). In the first step, HVEM-His, dissolved in PBS at a concentration of 5 μg/mL (100 μL/well), was immobilized on the plate by overnight incubation at 4 °C. Wells were then blocked with 5% bovine serum albumin (BSA) in PBS containing 0.05% Tween 20 (PBS-T) (200 μL/well). Next, peptides dissolved in PBS-T at concentrations of 150, 50, and 16.67 μM were added to the wells (100 μL/well). Following this, BTLA-Fc in PBS-T at a concentration of 5 μg/mL (100 μL/well) was applied. In the next step, goat anti-human IgG antibody conjugated with the HRP (Bio-Rad Laboratories, Hercules, CA, USA) in PBS-T at a ratio of 1:30,000 (v/v) was added (100 μL/well). Colorimetric detection was performed by adding 100 μL of TMB substrate (Thermo Fisher Scientific, Waltham, MA, USA) to each well and incubating the plate in the dark. At each stage, plates were incubated at 37 °C with continuous shaking for 1 h (except TMB, which was incubated for 15 min). After each incubation, wells were washed five times with PBS-T. Absorbance was measured using an Infinite M200 Pro Reader (Tecan Group Ltd., Männedorf, Switzerland) at wavelengths of 650 nm (measurement wavelength) and 492 nm (reference wavelength). Inhibition assays for the HVEM/LIGHT complex were conducted using the same approach, except that LIGHT was used instead of BTLA. The BTLA/HVEM and HVEM/LIGHT complexes without peptides served as controls. Inhibition percentages were calculated based on the assumption that PBS-T has no effect on the formation of BTLA/HVEM or HVEM/LIGHT complexes. Each ELISA was conducted in at least three independent replicates. The data were analyzed using GraphPad Prism 8 software (San Diego, CA, USA).
In general terms: ELISA stands for enzyme-linked immunosorbent assay.

For `CC[C@H](NC(=O)[C@H](CC)NC(=O)[C@H](CCC(N)=O)NC(=O)[C@H](Cc1ccc(O)cc1)NC(C)=O)C(=O)N[C@@H](C)C(=O)N[C@@H](CCCNC(=N)N)C(=O)N[C@@H](CO)C(=O)N[C@@H](CCC(N)=O)C(=O)N[C@@H](CCCCN)C(=O)N[C@@H](CO)C(=O)NCC(=O)N[C@H](C(=O)N[C@@H](CCCNC(=N)N)C(=O)N[C@@H](CC(C)C)C(=O)N[C@@H](CCC(N)=O)C(=O)NCC(=O)N[C@@H](Cc1c[nH]cn1)C(=O)N[C@@H](Cc1ccccc1)C(=O)N[C@@H](Cc1ccccc1)C(N)=O)[C@@H](C)CC` [A1, CD160(110–128)^(C112X,C113X)] (HELM PEPTIDE1{[ac].Y.Q.[Abu].[Abu].A.R.S.Q.K.S.G.I.R.L.Q.G.H.F.F.[am]}$$$$V2.0), the inhibition at 16.67 µM is 4.31%, the inhibition at 50 µM was 6.28% and the inhibition at 150 µM is 7.44%.
For `CC[C@@H]1NC(=O)[C@H](CC)NC(=O)[C@@H](NC(=O)[C@H](Cc2ccc(O)cc2)NC(C)=O)CSSC[C@@H](C(=O)N[C@@H](Cc2ccccc2)C(N)=O)NC(=O)[C@H](Cc2c[nH]cn2)NC(=O)CNC(=O)[C@H](CCC(N)=O)NC(=O)[C@H](CC(C)C)NC(=O)[C@H](CCCNC(=N)N)NC(=O)[C@H]([C@@H](C)CC)NC(=O)CNC(=O)[C@H](CO)NC(=O)[C@H](CCCCN)NC(=O)[C@H](CCC(N)=O)NC(=O)[C@H](CO)NC(=O)[C@H](CCCNC(=N)N)NC(=O)[C@H](C)NC1=O` [A2, CD160(110–128)^(Q111C,C112X,C113X,F127C)] (HELM PEPTIDE1{[ac].Y.C.[Abu].[Abu].A.R.S.Q.K.S.G.I.R.L.Q.G.H.C.F.[am]}$PEPTIDE1,PEPTIDE1,3:R3-19:R3$$$V2.0), in that order: 1.45%, 3% and 2.26%.
The corresponding values for `CC[C@H](NC(=O)[C@H](CCC(N)=O)NC(=O)[C@H](Cc1ccc(O)cc1)NC(C)=O)C(=O)N[C@H]1CSSC[C@@H](C(=O)NCC(=O)N[C@@H](Cc2c[nH]cn2)C(=O)N[C@@H](Cc2ccccc2)C(=O)N[C@@H](Cc2ccccc2)C(N)=O)NC(=O)[C@H](CC(C)C)NC(=O)[C@H](CCCNC(=N)N)NC(=O)[C@H]([C@@H](C)CC)NC(=O)CNC(=O)[C@H](CO)NC(=O)[C@H](CCCCN)NC(=O)[C@H](CCC(N)=O)NC(=O)[C@H](CO)NC(=O)[C@H](CCCNC(=N)N)NC(=O)[C@H](C)NC1=O` [A3, CD160(110–128)^(C112X,Q124C)] (HELM PEPTIDE1{[ac].Y.Q.[Abu].C.A.R.S.Q.K.S.G.I.R.L.C.G.H.F.F.[am]}$PEPTIDE1,PEPTIDE1,5:R3-16:R3$$$V2.0) are -0.96%, -0.72% and 3.85%.
For `CC[C@H](NC(=O)[C@H](CCC(N)=O)NC(=O)[C@H](Cc1ccc(O)cc1)NC(C)=O)C(=O)N[C@@H](CC)C(=O)N[C@H]1CSSC[C@@H](C(=O)N[C@@H](CCC(N)=O)C(=O)NCC(=O)N[C@@H](Cc2c[nH]cn2)C(=O)N[C@@H](Cc2ccccc2)C(=O)N[C@@H](Cc2ccccc2)C(N)=O)NC(=O)[C@H](CCCNC(=N)N)NC(=O)[C@H]([C@@H](C)CC)NC(=O)CNC(=O)[C@H](CO)NC(=O)[C@H](CCCCN)NC(=O)[C@H](CCC(N)=O)NC(=O)[C@H](CO)NC(=O)[C@H](CCCNC(=N)N)NC1=O` [A4, CD160(110–128)^(C112X,C113X,A114C,L123C)] (HELM PEPTIDE1{[ac].Y.Q.[Abu].[Abu].C.R.S.Q.K.S.G.I.R.C.Q.G.H.F.F.[am]}$PEPTIDE1,PEPTIDE1,6:R3-15:R3$$$V2.0), in that order: -2.23%, -0.34% and -1.77%.
On to `CC[C@H](NC(=O)[C@H](CC(C)C)NC(=O)[C@H](Cc1ccccc1)NC(=O)[C@@H](NC(=O)[C@@H](NC(=O)[C@H](Cc1ccccc1)NC(C)=O)C(C)C)C(C)C)C(=O)N[C@@H](CCCCN)C(=O)N[C@@H](CC(=O)O)C(=O)N[C@@H](CCCNC(=N)N)C(=O)N[C@@H](CO)C(=O)NCC(=O)N[C@@H](CC(=O)O)C(=O)N[C@@H](CC)C(=O)N[C@@H](CO)C(=O)N1CCC[C@H]1C(=O)N[C@@H](CCC(=O)O)C(=O)N[C@H](C(=O)N[C@@H](CO)C(=O)N[C@@H](CC(C)C)C(=O)N[C@@H](CCCCN)C(=O)N[C@@H](CCC(N)=O)C(=O)N[C@@H](CC(C)C)C(=O)N[C@@H](CCCNC(=N)N)C(=O)N[C@@H](CC(C)C)C(N)=O)[C@@H](C)O` [B1, CD160(56–79)^(C61X,C68X)] (HELM PEPTIDE1{[ac].F.V.V.F.L.[Abu].K.D.R.S.G.D.[Abu].S.P.E.T.S.L.K.Q.L.R.L.[am]}$$$$V2.0), for which the inhibition at 16.67 µM amounted to 1.49% and the inhibition at 50 µM is 4.68%.
Take `CC[C@@H]1NC(=O)[C@@H](NC(=O)[C@H](Cc2ccccc2)NC(=O)[C@@H](NC(=O)[C@@H](NC(=O)[C@H](Cc2ccccc2)NC(C)=O)C(C)C)C(C)C)CSSC[C@@H](C(=O)N[C@@H](CCCCN)C(=O)N[C@@H](CCC(N)=O)C(=O)N[C@@H](CC(C)C)C(=O)N[C@@H](CCCNC(=N)N)C(=O)N[C@@H](CC(C)C)C(N)=O)NC(=O)[C@H](CO)NC(=O)[C@H]([C@@H](C)O)NC(=O)[C@H](CCC(=O)O)NC(=O)[C@@H]2CCCN2C(=O)[C@H](CO)NC(=O)[C@H](CC)NC(=O)[C@H](CC(=O)O)NC(=O)CNC(=O)[C@H](CO)NC(=O)[C@H](CCCNC(=N)N)NC(=O)[C@H](CC(=O)O)NC(=O)[C@H](CCCCN)NC1=O` [B3, CD160(56–79) ^(L60C,C61X,C68X,L74C)] (HELM PEPTIDE1{[ac].F.V.V.F.C.[Abu].K.D.R.S.G.D.[Abu].S.P.E.T.S.C.K.Q.L.R.L.[am]}$PEPTIDE1,PEPTIDE1,6:R3-20:R3$$$V2.0): the inhibition at 16.67 µM was -4.44%, the inhibition at 50 µM was -5.5% and the inhibition at 150 µM is -4.74%.
For `CC[C@@H]1NC(=O)[C@H](CC(C)C)NC(=O)[C@@H](NC(=O)[C@@H](NC(=O)[C@@H](NC(=O)[C@H](Cc2ccccc2)NC(C)=O)C(C)C)C(C)C)CSSC[C@@H](C(=O)N[C@@H](CC(C)C)C(=O)N[C@@H](CCCNC(=N)N)C(=O)N[C@@H](CC(C)C)C(N)=O)NC(=O)[C@H](CCCCN)NC(=O)[C@H](CC(C)C)NC(=O)[C@H](CO)NC(=O)[C@H]([C@@H](C)O)NC(=O)[C@H](CCC(=O)O)NC(=O)[C@@H]2CCCN2C(=O)[C@H](CO)NC(=O)[C@H](CC)NC(=O)[C@H](CC(=O)O)NC(=O)CNC(=O)[C@H](CO)NC(=O)[C@H](CCCNC(=N)N)NC(=O)[C@H](CC(=O)O)NC(=O)[C@H](CCCCN)NC1=O` [B4, CD160(56–79)^(F59C,C61X,C68X,Q76C)] (HELM PEPTIDE1{[ac].F.V.V.C.L.[Abu].K.D.R.S.G.D.[Abu].S.P.E.T.S.L.K.C.L.R.L.[am]}$PEPTIDE1,PEPTIDE1,5:R3-22:R3$$$V2.0), in that order: -4.42%, 0.29% and 9.93%.
The corresponding values for `CC[C@H](NC(=O)[C@H](CC(C)C)NC(=O)[C@H](Cc1ccccc1)NC(C)=O)C(=O)N[C@@H](CCCCN)C(=O)N[C@@H](CC(=O)O)C(=O)N[C@@H](CCCNC(=N)N)C(=O)N[C@@H](CO)C(=O)NCC(=O)N[C@@H](CC(=O)O)C(=O)N[C@@H](CC)C(=O)N[C@@H](CO)C(=O)N1CCC[C@H]1C(=O)N[C@@H](CCC(=O)O)C(=O)N[C@H](C(=O)N[C@@H](CO)C(=O)N[C@@H](CC(C)C)C(=O)N[C@@H](CCCCN)C(N)=O)[C@@H](C)O` [C1, CD160(59–75)^(C61X,C68X)] (HELM PEPTIDE1{[ac].F.L.[Abu].K.D.R.S.G.D.[Abu].S.P.E.T.S.L.K.[am]}$$$$V2.0) are 4.03%, 2.63% and 1.99%.
